Source: patent US10759783B2, “Biaryl inhibitors of Bruton'S tyrosine kinase” (BIOGEN MA INC., priority 2013, dated 2020)

Legend:
BTK enzyme = target: T1, BTK enzyme (Homo sapiens, UniProt Q06187); experiment: In vitro BTK kinase assay: BTK-POLYGAT-LS assay; type: biochemical; conditions: ATP 10 μM, read-out: IC50 (10uMATP)
T1 construct: purchased Upstate 14-552
Summary of the method: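 Human BTK activity was measured with final 10 μM ATP and 100 nM polyGAT substrate in pH 7.5 Tris buffer with 10 mM MgCl2, DTT, Triton X-100 and casein.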

[1] = target: BTK (phospho-BTK) in human whole blood (Homo sapiens, UniProt Q06187); experiment: In vitro PD assay in human whole blood (pBTK assay)
Chain of BTK (phospho-BTK) in human whole blood (Q06187 whole entry): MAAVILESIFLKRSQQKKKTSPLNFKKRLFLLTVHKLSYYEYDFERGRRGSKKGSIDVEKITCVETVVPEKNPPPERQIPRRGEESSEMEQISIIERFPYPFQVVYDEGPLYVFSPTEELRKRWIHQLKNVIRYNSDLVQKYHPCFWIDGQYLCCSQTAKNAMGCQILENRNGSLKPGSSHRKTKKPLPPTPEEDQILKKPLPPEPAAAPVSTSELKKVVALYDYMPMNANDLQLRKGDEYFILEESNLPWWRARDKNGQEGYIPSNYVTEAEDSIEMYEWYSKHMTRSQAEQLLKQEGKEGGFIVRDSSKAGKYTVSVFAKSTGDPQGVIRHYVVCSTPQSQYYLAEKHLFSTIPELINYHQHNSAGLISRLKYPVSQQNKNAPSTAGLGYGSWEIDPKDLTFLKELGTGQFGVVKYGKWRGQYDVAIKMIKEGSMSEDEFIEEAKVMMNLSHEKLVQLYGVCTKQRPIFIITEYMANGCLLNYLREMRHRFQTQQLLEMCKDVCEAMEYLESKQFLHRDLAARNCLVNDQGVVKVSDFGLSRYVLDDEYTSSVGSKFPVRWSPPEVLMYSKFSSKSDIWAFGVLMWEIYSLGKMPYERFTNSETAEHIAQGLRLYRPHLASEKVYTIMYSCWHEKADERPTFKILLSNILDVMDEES

T1 sequence (Q06187 whole entry): as above

IC50 (BTK enzyme) [nM] | IC50 [1] [nM] | SMILES
< 10 | < 500 | Cc1cc(-c2ccnc(Nc3cnn(C4CCN(C)CC4)c3)n2)ccc1CNC(=O)c1cnn(C(C)(C)C)c1 [Example I-197, 1-(tert-butyl)-N-(2-methyl-4-(2-((1-(1-methylpiperidin-4-yl)-1H-pyrazol-4-yl)amino)pyrimidin-4-yl)benzyl)-1H-pyrazole-4-carboxamide]
< 10 | < 500 | CN1CC(n2cc(Nc3nccc(-c4ccc(CNC(=O)c5cnn(C(C)(C)C)c5)c(C(F)(F)F)c4)n3)cn2)C1 [Example I-201, 1-(tert-butyl)-N-(4-(2-((1-(1-methylazetidin-3-yl)-1H-pyrazol-4-yl)amino)pyrimidin-4-yl)-2-(trifluoromethyl)benzyl)-1H-pyrazole-4-carboxamide]
< 10 | < 500 | Cn1cc(Nc2nccc(-c3ccc(CNC(=O)c4cnn(C(C)(C)C)c4)c(C(F)(F)F)c3)n2)cn1 [Example I-202, 1-(tert-butyl)-N-(4-(2-((1-methyl-1H-pyrazol-4-yl)amino)pyrimidin-4-yl)-2-(trifluoromethyl)benzyl)-1H-pyrazole-4-carboxamide]
< 10 | < 500 | CN1CC[C@H](n2cc(Nc3nccc(-c4ccc(CNC(=O)N5CCC(C(C)(C)C)C5)c(C(F)(F)F)c4)n3)cn2)C1 (stereo partly drawn) [Example I-207, 3-(tert-butyl)-N-(4-(2-((1-((S)-1-methylpyrrolidin-3-yl)-1H-pyrazol-4-yl)amino)pyrimidin-4-yl)-2-(trifluoromethyl)benzyl)pyrrolidine-1-carboxamide]
< 10 | < 500 | CN1CC[C@@H](n2cc(Nc3nccc(-c4ccc(CNC(=O)N5CCC(C(C)(C)C)C5)c(C(F)(F)F)c4)n3)cn2)C1 (stereo partly drawn) [Example I-208, 3-(tert-butyl)-N-(4-(2-((1-((R)-1-methylpyrrolidin-3-yl)-1H-pyrazol-4-yl)amino)pyrimidin-4-yl)-2-(trifluoromethyl)benzyl)pyrrolidine-1-carboxamide]
< 10 | < 500 | CC(C)(C)C1CCN(C(=O)NCc2ccc(-c3ccnc(Nc4cnn(CCO)c4)n3)cc2C(F)(F)F)C1 (stereo not drawn) [Example I-209, 3-(tert-butyl)-N-(4-(2-((1-(2-hydroxyethyl)-1H-pyrazol-4-yl)amino)pyrimidin-4-yl)-2-(trifluoromethyl)benzyl)pyrrolidine-1-carboxamide]
< 10 | < 500 | Cn1cc(Nc2nccc(-c3ccc(CNC(=O)N4CCC(C(C)(C)C)C4)c(C#N)c3)n2)cn1 (stereo not drawn) [Example I-210, 3-(tert-butyl)-N-(2-cyano-4-(2-((1-methyl-1H-pyrazol-4-yl)amino)pyrimidin-4-yl)benzyl)pyrrolidine-1-carboxamide]
< 10 | < 500 | Cn1cc(Nc2nccc(-c3ccc(CNC(=O)c4cnn(C(C)(C)C)c4)c(C#N)c3)n2)cn1 [Example I-211, 1-(tert-butyl)-N-(2-cyano-4-(2-((1-methyl-1H-pyrazol-4-yl)amino)pyrimidin-4-yl)benzyl)-1H-pyrazole-4-carboxamide]
< 10 | < 500 | CNC(=O)C(C)(C)n1cc(Nc2nccc(-c3ccc(CNC(=O)N4CC(OC(C)C)C4)c(C)c3)n2)cn1 [Example I-212, 3-isopropoxy-N-(2-methyl-4-(2-((1-(2-methyl-1-(methylamino)-1-oxopropan-2-yl)-1H-pyrazol-4-yl)amino)pyrimidin-4-yl)benzyl)azetidine-1-carboxamide]
< 10 | < 500 | COCCn1cc(Nc2nccc(-c3ccc(CNC(=O)N4CC(OC(C)C)C4)c(C)c3)n2)cn1 [Example I-213, 3-isopropoxy-N-(4-(2-((1-(2-methoxyethyl)-1H-pyrazol-4-yl)amino)pyrimidin-4-yl)-2-methylbenzyl)azetidine-1-carboxamide]

Further lines, the compound ahead of its results:

SMILES | IC50 (BTK enzyme) [nM] | IC50 [1] [nM]
Cn1cc(Nc2nccc(-c3ccc4c(c3)OCCCC4NC(=O)N3CC(OC(C)(C)C)C3)n2)cn1 (stereo not drawn) [Example I-189, 3-(tert-butoxy)-N-(8-(2-((1-methyl-1H-pyrazol-4-yl)amino)pyrimidin-4-yl)-2,3,4,5-tetrahydrobenzo[b]oxepin-5-yl)azetidine-1-carboxamide] | < 10 | < 500
Cn1cc(Nc2nccc(-c3ccc(CNC(=O)N4CC(OC(C)(C)C)C4)c(CCO)c3)n2)cn1 [Example I-190, 3-(tert-butoxy)-N-(2-(2-hydroxyethyl)-4-(2-((1-methyl-1H-pyrazol-4-yl)amino)pyrimidin-4-yl)benzyl)azetidine-1-carboxamide] | < 10 | < 500
Cn1cc(Nc2nccc(-c3ccc(CNC(=O)c4cnn(C(C)(C)C)c4)c(CCO)c3)n2)cn1 [Example I-191, 1-(tert-butyl)-N-(2-(2-hydroxyethyl)-4-(2-((1-methyl-1H-pyrazol-4-yl)amino)pyrimidin-4-yl)benzyl)-1H-pyrazole-4-carboxamide] | < 10 | < 500
Cc1cc(-c2ccnc(Nc3cnn(C)c3)n2)ccc1CN1CCc2c(cnn2C(C)(C)C)C1=O [Example I-192, 1-(tert-butyl)-5-(2-methyl-4-(2-((1-methyl-1H-pyrazol-4-yl)amino)pyrimidin-4-yl)benzyl)-6,7-dihydro-1H-pyrazolo[4,3-c]pyridin-4(5H)-one] | < 10 | < 500
Cc1cc(-c2cc(Nc3cc4n(n3)CCC4)ncn2)ccc1CNC(=O)c1cnn(C(C)(C)C)c1 [Example I-193, 1-(tert-butyl)-N-(4-(6-((5,6-dihydro-4H-pyrrolo[1,2-b]pyrazol-2-yl)amino)pyrimidin-4-yl)-2-methylbenzyl)-1H-pyrazole-4-carboxamide] | < 10 | < 500
Cc1cc(-c2ccnc(Nc3cnn4c3CCC4)n2)ccc1CNC(=O)N1CCC(C(C)(C)C)C1 (stereo not drawn) [Example I-194, 3-(tert-butyl)-N-(4-(2-((5,6-dihydro-4H-pyrrolo[1,2-b]pyrazol-3-yl)amino)pyrimidin-4-yl)-2-methylbenzyl)pyrrolidine-1-carboxamide] | < 10 | < 500
Cc1cc(-c2ccnc(Nc3cnn(C4CCN(C)CC4)c3)n2)ccc1CNC(=O)c1cc(C(C)(C)C)on1 [Example I-196, 5-(tert-butyl)-N-(2-methyl-4-(2-((1-(1-methylpiperidin-4-yl)-1H-pyrazol-4-yl)amino)pyrimidin-4-yl)benzyl)isoxazole-3-carboxamide] | < 10 | < 500
Cn1cc(Nc2nccc(-c3ccc(CNC(=O)N4CC(OC(C)(C)C)C4)c(C(F)(F)F)c3)n2)cn1 [Example I-198, 3-(tert-butoxy)-N-(4-(2-((1-methyl-1H-pyrazol-4-yl)amino)pyrimidin-4-yl)-2-(trifluoromethyl)benzyl)azetidine-1-carboxamide] | < 10 | < 500
CC(C)n1cc(Nc2nccc(-c3ccc(CNC(=O)N4CC(OC(C)(C)C)C4)c(C(F)(F)F)c3)n2)cn1 [Example I-199, 3-(tert-butoxy)-N-(4-(2-((1-isopropyl-1H-pyrazol-4-yl)amino)pyrimidin-4-yl)-2-(trifluoromethyl)benzyl)azetidine-1-carboxamide] | < 10 | < 500
CN1CCC(n2cc(Nc3nccc(-c4ccc(CNC(=O)N5CC(OC(C)(C)C)C5)c(C(F)(F)F)c4)n3)cn2)CC1 [Example I-200, 3-(tert-butoxy)-N-(4-(2-((1-(1-methylpiperidin-4-yl)-1H-pyrazol-4-yl)amino)pyrimidin-4-yl)-2-(trifluoromethyl)benzyl)azetidine-1-carboxamide] | < 10 | < 500
CCn1cc(Nc2nccc(-c3ccc(CNC(=O)N4CC(OC(C)(C)C)C4)c(C(F)(F)F)c3)n2)cn1 [Example I-203, 3-(tert-butoxy)-N-(4-(2-((1-ethyl-1H-pyrazol-4-yl)amino)pyrimidin-4-yl)-2-(trifluoromethyl)benzyl)azetidine-1-carboxamide] | < 10 | < 500
COCCn1cc(Nc2nccc(-c3ccc(CNC(=O)N4CC(OC(C)(C)C)C4)c(C(F)(F)F)c3)n2)cn1 [Example I-204, 3-(tert-butoxy)-N-(4-(2-((1-(2-methoxyethyl)-1H-pyrazol-4-yl)amino)pyrimidin-4-yl)-2-(trifluoromethyl)benzyl)azetidine-1-carboxamide] | < 10 | < 500
CC(C)(C)OC1CN(C(=O)NCc2ccc(-c3ccnc(Nc4cnn(CCO)c4)n3)cc2C(F)(F)F)C1 [Example I-205, 3-(tert-butoxy)-N-(4-(2-((1-(2-hydroxyethyl)-1H-pyrazol-4-yl)amino)pyrimidin-4-yl)-2-(trifluoromethyl)benzyl)azetidine-1-carboxamide] | < 10 | < 500
CN1CC(n2cc(Nc3nccc(-c4ccc(CNC(=O)N5CC(OC(C)(C)C)C5)c(C(F)(F)F)c4)n3)cn2)C1 [Example I-206, 3-(tert-butoxy)-N-(4-(2-((1-(1-methylazetidin-3-yl)-1H-pyrazol-4-yl)amino)pyrimidin-4-yl)-2-(trifluoromethyl)benzyl)azetidine-1-carboxamide] | < 10 | < 500
Cc1cc(-c2ccnc(Nc3cnn(CCO)c3)n2)ccc1CNC(=O)N1CC(OC(C)(C)C)C1 [Example I-214, 3-(tert-butoxy)-N-(4-(2-((1-(2-hydroxyethyl)-1H-pyrazol-4-yl)amino)pyrimidin-4-yl)-2-methylbenzyl)azetidine-1-carboxamide] | < 10 | < 500
Cc1cc(-c2ccnc(Nc3cnn(C4CN(C)C4)c3)n2)ccc1CNC(=O)N1CC(OC(C)(C)C)C1 [Example I-215, 3-(tert-butoxy)-N-(2-methyl-4-(2-((1-(1-methylazetidin-3-yl)-1H-pyrazol-4-yl)amino)pyrimidin-4-yl)benzyl) azetidine-1-carboxamide] | < 10 | < 500
CCn1cc(Nc2nccc(-c3ccc(CNC(=O)N4CC(OC(C)(C)C)C4)c(C)c3)n2)cn1 [Example I-216, 3-(tert-butoxy)-N-(4-(2-((1-ethyl-1H-pyrazol-4-yl)amino)pyrimidin-4-yl)-2-methylbenzyl)azetidine-1-carboxamide] | < 10 | < 500
